According to patent publication US20090247752A1, “GATIFLOXACIN-CONTAINING AQUEOUS LIQUID PREPARATION, ITS PRODUCTION AND METHOD FOR SUPPRESSING FORMATION OF PRECIPITATE DURING STORAGE AT LOWER TEMPERATURE AND AT THE TIME OF FREEZING AND THAWING OF THE AQUEOUS LIQUID PREPARATION” (Kyorin Pharmaceutical Co., Ltd., priority 2008, published 2009):
In brackets after ≈: the same amount, converted by molar mass.

Assay: Solubility test of Gatifloxacin (Test Example 1)
Assay type: physicochemical
Conditions: for solubility thermodynamic at 3 h: pH 6.5, aqueous buffer, thermodynamic from solid, pH 6.5, stirred 3 hours at room temperature
Description: According to the formulations shown in Table 1, a saturated solution of Gatifloxacin containing the given amount of each additive was prepared. The solution containing sodium dihydrogen phosphate, boric acid or malonic acid was adjusted to a pH of 6.5 with hydrochloric acid and sodium hydroxide, and then stirred for 3 hours at room temperature. The solution containing nicotinamide was adjusted to 6.0 with hydrochloric acid and sodium hydroxide, filled in glass ampoules and shaken for 2 days at room temperature. As a control, a saturated solution of Gatifloxacin containing no additive was prepared, its pH was adjusted to 6.5 with hydrochloric acid and sodium hydroxide, and stirred for 3 hours at room temperature. Each solution was filtered through a membrane filter (0.45 μm), and the filtrate (1 mL) was precisely measured and a diluent was added thereto to precisely make its volume up to 50 mL. The resultant solution (3 mL) was precisely measured, an internal standard solution (3 mL) was precisely added thereto, and a diluent was added thereto to precisely make its volume up to 20 mL to prepare a sample solution. The concentration of Gatifloxacin was measured in the sample solution (20 μL) under the following HPLC conditions. The solubility was converted in terms of Gatifloxacin 3/2 hydrate.
Detector: Ultraviolet absorptiometer (measurement wavelength: 280 nm) Column: Inertsil ODS-2 […], 4.6 mmφ×150 mm, GL Sciences Inc. Column temperature: 40° C. Mobile phase: acetonitrile (180 mL), water (810 mL) and triethylamine (10 mL) were mixed, and the pH was adjusted to 4.5 with phosphoric acid. Flow rate: 0.8 mL/min Injection amount: 20 μL Internal standard solution: a mobile phase solution of methyl p-aminobenzoate (1→10000) Diluent: Mixture of acetonitrile, water and phosphoric acid (200:800:0.8)

Compound: COc1c(N2CCNC(C)C2)c(F)cc2c(=O)c(C(=O)O)cn(C3CC3)c12 (racemic) [Gatifloxacin, (±)-1-cyclopropyl-6-fluoro-1,4-dihydro-8-methoxy-7-(3-methyl-1-piperazinyl)-4-oxo-3-quinolinecarboxylic acid]
- Solubility of Gatifloxacin (nicotinamide 1 w/v %, pH 6.0, shaken 2 days at room temperature, in terms of 3/2 hydrate): 1.41 w/v %
- solubility thermodynamic at 3 h (sodium dihydrogen phosphate dihydrate 0.5 w/v %, in terms of 3/2 hydrate): 7200 µg/mL (≈ 19.2 mM)
- solubility thermodynamic at 3 h (sodium dihydrogen phosphate dihydrate 1 w/v %, in terms of 3/2 hydrate): 9100 µg/mL (≈ 24.2 mM)
- solubility thermodynamic at 3 h (saturated solution containing boric acid 0.5 w/v %, boric acid 0.5 w/v %, in terms of 3/2 hydrate): 5800 µg/mL (≈ 15.5 mM)
- solubility thermodynamic at 3 h (saturated solution containing boric acid 1 w/v %, boric acid 1 w/v %, in terms of 3/2 hydrate): ~6000 µg/mL (≈ 16 mM)
- solubility thermodynamic at 3 h (saturated solution containing malonic acid 0.5 w/v %, malonic acid 0.5 w/v %, in terms of 3/2 hydrate): 9600 µg/mL (≈ 25.6 mM)
- solubility thermodynamic at 3 h (saturated solution containing malonic acid 1 w/v %, malonic acid 1 w/v %, in terms of 3/2 hydrate): 9300 µg/mL (≈ 24.8 mM)
- solubility thermodynamic at 3 h (saturated solution containing no additive (control), no additive (control), in terms of Gatifloxacin 3/2 hydrate): 5300 µg/mL (≈ 14.1 mM)
